Data reported in patent publication US9242009B2, “Compositions and methods to treat neurodegenerative diseases” (The General Hospital Corporation, priority 2012, dated 2016).
“Also recorded” adds a separate entry of the source. Read-outs that look alike come from different tables or passages of the source. Blank lines part the entries; values can stand above or below the compound they belong to.

Assays:
SH-SY5Y [1] = test: Intracellular GSH levels in SH-SY5Y (HPLC); assay type: cell-based, Human
Description: Intracellular GSH level of SH-SY5Y was measured using HPLC method as previously reported (Kimura et al. (2009) Antioxidants & Redox Signaling 12, 1-13). Briefly, cells were seeded into 6 cm dishes (5×10^5 cells per dish) and treated with 50 μM H2S donors or memantine with or without 2 mM glutamate for 8 hours, followed by washing with ice-cold PBS. Cells were scraped and transferred to a microfuge tube and sonicated. Some fraction of lysate was used for protein assay. After centrifugation, 75 μl of supernatant, 26 μl of 2-(cyclohexylamino) ethanesulfonic acid (CHES, 0.5 M, PH 8.4), and 4 μl of 50 μM MBB were mixed and incubated at room temperature in dark for 30 minutes. Acetic acid (100 μl, 30% v/v) was added, followed by centrifugation at 15,000×g for 10 min after 5 min incubation of the tube on ice. The supernatant was analyzed using HPLC at wavelength of λex=370 nm and λem=486 nm.

SH-SY5Y cells [2] = test: Intracellular sulfide levels in SH-SY5Y cells (HPLC); assay type: cell-based, Human
Description: Human neuroblastoma SH-SY5Y cells were cultured in Eagle's medium/Ham's F-12 50/50 Mix (DMEM/F12, Cellgro by Mediatech, Inc.) supplemented with 10% fetal bovine serum (FBS) and 1% penicillin/streptomycin. The cells were seeded into 96 well plates (2×10^4 cells per well) for OGD and measurements of toxicity, 6 cm dishes (5×10^5 cells per dish) for measurements of sulfide and reduced-glutathione (GSH), or 10 cm dishes (1×10^6 cells per dish) for measurements of intracellular calcium. Cell culture medium was replaced every 2 days, and the cultures were maintained at 37° C. in 95% air/5% CO2 in a humidified incubator. Cells were used after reaching 80% confluent.
Concentration of free sulfide in SH-SY5Y cells was measured using high performance liquid chromatography (HPLC) (Tokuda et al. (2012) Antioxidants & Redox Signaling). Briefly, SH-SY5Y cells were seeded into 6 cm dishes (5×10^5 cells per dish). After being 80% confluent, 20 μM H2S donor was added to the dish and incubated at 37° C. Cells were washed with ice-cold Tris-HCl (100 mM, PH 9.5, DTPA 0.1 mM) buffer, scraped, transferred to microfuge tubes, and centrifuged. MBB (10 mM in acetonitrile, 50 μl) was added to 100 μl of supernatant. After 30 minutes of incubation at room temperature in dark, 50 μl of 200 mM 5-sulfosalicylic acid (SSA) was added. After centrifugation, supernatant was analyzed by HPLC. For sulfide levels in medium, after centrifugation, supernatant was used for MBB reaction as above.
In contrast, incubation of SH-SY5Y cells with S-memantine increased intracellular sulfide level more markedly than incubation with ACS48 at all time points after addition (˜10 fold at 4 hours, P<0.001 by two-way ANOVA with Bonferroni post-test). In a separate experiment, we examined whether or not incubation with memantine itself or incubation with ACS48 and memantine would affect intracellular sulfide levels in SH-SY5Y cells.

[3] = system: murine primary cortical neurons; test: Amyloid beta-induced toxicity in murine primary cortical neurons (LDH release, MTT); assay type: cell-based, mice; settings: 24 hours incubation with Aβ1-42 at 20 μM; for Cell viabilities after Aβ1-42: compound 5, 10 or 30 μM
Description: FIG. 13A-B is a set of two bar graphs depicting cell viability of murine primary cortical neurons exposed to 20 μM amyloid beta (Aβ) and treated with memantine, ACS48, or S-memantine at 5, 10, or 30 μM. Cell viability was estimated by LDH release assay in the left graph and MTT assay in the right graph.

[4] = system: murine primary cortical neurons; test: Cytotoxicity of H2S donors to murine primary cortical neurons (LDH release); assay type: cell-based, mice; settings: 24 hours
Description: (§1) A microtiter plate containing cells was centrifuged at 250×g for 10 minutes and the supernatant was used for LDH measurement with LDH Cytotoxicity Detection Kit (Roche). After aspirating the medium, remaining cells were washed with PBS, then, 100 μl of 1% Triton-X was added to each well, followed by incubation at 37° C. for 30 minutes. Medium and lysates were used for LDH measurement at wavelength 492 nm. Percentage of released LDH was calculated with following formula: {LDH (medium)/LDH (medium+cell)×100}. Average value of control (cells without OGD) was deducted as background.

SH-SY5Y cells [5] = test: Oxygen-glucose deprivation (OGD) of SH-SY5Y cells, viability by LDH release, MTT and CV assays; assay type: cell-based, Human
Description: OGD for SH-SY5Y was performed by placing cells in a hypoxia chamber ([…] Technologies Inc.) for 15 hours, followed by 24 hours of reoxygenation as previously reported (FIG. 3A) (Serra-Pérez et al. (2008) Journal of Neurochemistry 106, 1237-1247). Briefly, medium was replaced with glucose-free RPMI 1640 with L-glutamine (Cellgro by Mediatech, Inc), deoxygenated with anaerobic gas mixture (93% N2-5% CO2-2% H2) for 30 minutes before use. Cells were then placed in a hypoxia chamber, flushed with anaerobic gas mixture (93% N2-5% CO2-2% H2) and incubated at 37° C. After 15 hours of hypoxia, medium was replaced with DMEM/F12 and incubated for 24 hours at 37° C. in 95% air/5% CO2 in a humidified incubator.
as §1
Ten μl of thiazolyl blue tetrazolium bromide solution (5 mg/ml in PH 7.4 PBS) was added to each well containing 100 μl of medium and cells, followed by incubation at 37° C. for 4 hours in the dark. Isopropanol (100 μl, 0.04 N HCl) was added to dissolve blue dye. After dissolved completely, absorbance was measured with plate-reader (Synergy 2, BioTek Instrument) at test wavelength 570 nm and reference wavelength 670 nm. Cell viability was determined by absorbance at 570 nm and reported as ratio to control cells (without OGD).
After aspirating culture medium, cells were fixed and stained by 0.5% CV in 95% (v/v) ethanol for 5 minutes, then washed by tap water several times. After taking photographs, 1% sodium dodecylsulfate solution was added to each well to elute blue dye. Absorbance was measured with plate-reader at 595 nm of wavelength. Values were shown as ratio to control (cells without OGD).

[6] = Plasma and cerebral sulfide levels of mice after intraperitoneal administration; assay type: in vivo; settings: 25 μmol/kg intraperitoneal, 90 minutes after administration
Text: Blood was drawn from left ventricle and centrifuged to collect the plasma. After perfusion with Tris-HCl buffer via left ventricle, brain was harvested, homogenized in Tris-HCl, and centrifuged. Plasma and supernatant of brain homogenate were derivatized with MBB and analyzed by HPLC.

SH-SY5Y [7] = test: Amyloid beta-induced toxicity in SH-SY5Y (LDH release, MTT); assay type: cell-based, Human; settings: 24 hours incubation with Aβ1-42 at 20 μM; for Cell viabilities after Aβ1-42: compound 20 or 50 μM
Description: FIG. 12A-B is a set of two bar graphs showing cell viability of SH-SY5Y cells exposed to 20 μM amyloid beta (Aβ) and treated with memantine, ACS48, or S-memantine at 20 or 50 μM. Cell viability was estimated by LDH release assay in the left graph and MTT assay in the right graph.

[8] = system: murine primary cortical neurons; test: Intracellular calcium level [Ca2+]i (Fura-2/AM) with or without glutamate; assay type: cell-based, mice
SH-SY5Y cells [9] = test: MPP+-induced cytotoxicity in SH-SY5Y cells (CV, MTT assay); assay type: cell-based, Human; settings: 24 h
Description: The abilities of ACS48-amantadine, CTBA-memantine, S-memantine, and ACS81-memantine to improve viabilities of SH-SY5Y cells incubated with MPP^+, which has been used for an in-vitro Parkinson's disease model (Robert et al. (2012) Cell Death and Differentiation, 19, 1769-1778), were examined. SH-SY5Y cells (96 well plate, 2×10^5 cells/well) were incubated with MPP^+ (Sigma-Aldrich) at 5 mM in DMEM/F12 at 37° C. for 24 h. ACS48-amantadine, CTBA-memantine, S-memantine, or ACS81-memantine was dissolved in DMSO and added at 5 or 20 μM to the medium 30 min after the addition of MPP^+. The final concentration of DMSO in the medium was adjusted to 0.5% (v/v). Cell viabilities of SH-SY5Y 24 h after the addition of MPP^+ were measured by CV assay or MTT assay.

[10] = system: phosphorylated Akt at threonine 308; test: Immunoblot of phosphorylated Akt in SH-SY5Y after OGD; assay type: cell-based, Human; settings: 50 μM added 8 hours after end of OGD
mice challenged with LPS = test: LPS-induced cognitive impairment, Morris water-maze
[11] = system: phosphorylated tau protein at serine 202 and threonine 205; test: LPS-induced tau phosphorylation in mice hippocampus (immunoblot); assay type: in vivo
[12] = time- and dose-range studies, SH-SY5Y
[13] = 20 μM added 30 min after 5 mM MPP+

Plasma sulfide levels [6]: increased plasma sulfide levels
Compound: O=C(O)c1ccc(-c2cssc2=S)cc1 [ACS48, 4-(3-thioxo-3H-1,2-dithiol-4-yl)-benzoic acid]
Intracellular GSH levels (SH-SY5Y [1]; 50 μM, 8 hours, with 2 mM glutamate): restored intracellular GSH levels
Intracellular GSH levels (SH-SY5Y [1]; 50 μM, 8 hours, without glutamate): increased intracellular GSH levels
Time of peak intracellular sulfide levels after addition (SH-SY5Y cells [2]; 20 μM, SH-SY5Y): around 1.5 hours
Intracellular sulfide levels (SH-SY5Y cells [2]; 20 μM, SH-SY5Y, 37° C.): increased intracellular sulfide levels
Cell viabilities after Aβ1-42 compared with memantine [3]: improved cell viabilities more markedly than did memantine
Cell viabilities after Aβ1-42 [3]: improved cell viabilities
LDH release (cytotoxicity) ([4]; 50 μM, without memantine): markedly increased LDH release
Most effective dose to improve viability after OGD (SH-SY5Y cells [5]; [12]): 50 µM
Most effective time point of addition after the end of OGD (SH-SY5Y cells [5]; [12]): 8 h
Cell viabilities after Aβ1-42 compared with memantine (SH-SY5Y [7]): improved cell viabilities more markedly than did memantine
Cell viabilities after Aβ1-42 (SH-SY5Y [7]): improved cell viabilities
Glutamate-induced calcium accumulation ([8]; 20 μM, 100 μM glutamate): augmented glutamate-induced calcium accumulation
Increase of intracellular calcium [Ca2+]i ([8]; 20 μM, without glutamate): increased

Compound: O=C(NC12CC3CC(CC(C3)C1)C2)c1ccc(-c2cssc2=S)cc1 [ACS48-amantadine]
Cell viabilities of SH-SY5Y cells after MPP+ (SH-SY5Y cells [9]; 5 μM added 30 min after 5 mM MPP+): improved cell viabilities
Cell viabilities of SH-SY5Y cells after MPP+ (SH-SY5Y cells [9]; [13]): improved cell viabilities

Compound: CC12CC3CC(C)(C1)CC(NC(=O)c1ccc(C(N)=S)cc1)(C3)C2 [CTBA-memantine]
Cell viabilities of SH-SY5Y cells after MPP+ (SH-SY5Y cells [9]; [13]): improved cell viabilities

Compound: CC12CC3CC(C)(C1)CC(N)(C3)C2 [memantine]
GSH levels, memantine per se (SH-SY5Y [1]; 50 μM, 8 hours): did not affect GSH levels
Effect of memantine on intracellular sulfide levels (SH-SY5Y cells [2]; 20 μM memantine, cells incubated with or without ACS48 20 μM): did not affect intracellular sulfide levels
Cell viabilities after Aβ1-42 [3]: improved cell viabilities
LDH release caused by Na2S or ACS48 on co-incubation with memantine ([4]; 50 μM Na2S or ACS48 plus 50 μM memantine): abolished
Akt phosphorylation after OGD [10]: did not affect Akt phosphorylation
Aβ1-42 accumulation in mice cortex, or hippocampus (Aβ1-42; 45 μmol/kg pretreatment, LPS challenge for 7 days): prevented Aβ1-42 accumulation
Cell viabilities after Aβ1-42 (SH-SY5Y [7]): improved cell viabilities
Swimming speed in Morris water-maze test (mice challenged with LPS; 45 μmol/kg i.p.): did not change it
Swimming speed in Morris water-maze test (mice challenged with LPS; 90 μmol/kg i.p.): slowed swimming speed
LPS-induced tau phosphorylation at serine 202 and threonine 205 in mice hippocampus ([11]; 45 μmol/kg pretreatment): prevented LPS-induced tau phosphorylation
Glutamate-induced calcium accumulation ([8]; 20 μM, 100 μM glutamate): suppressed calcium accumulation

Compound: Sodium sulfide [Na2S]
Intracellular GSH levels (SH-SY5Y [1]): increased intracellular GSH levels; also recorded: restored intracellular GSH levels
Intracellular sulfide levels (SH-SY5Y cells [2]): increased intracellular sulfide levels
Time of peak intracellular sulfide levels after addition (SH-SY5Y cells [2]): around 1.5 hours
Cell viability after OGD (LDH release) (SH-SY5Y cells [5]): did not improve cell viability; also recorded: failed to improve cell viability; also recorded: No significant difference
Aβ1-42 accumulation in mice cortex, or hippocampus (Aβ1-42; mouse, in vivo): prevented Aβ1-42 accumulation
Prevention of Aβ1-42 accumulation compared with memantine (Aβ1-42; mouse, in vivo): prevented Aβ1-42 accumulation more markedly than did memantine
Latency until getting platform in Morris water-maze test (mice challenged with LPS; mouse, in vivo): improved latency
LPS-induced tau phosphorylation at serine 202 and threonine 205 in mice hippocampus ([11]; mouse, in vivo): prevented LPS-induced tau phosphorylation
Glutamate-induced calcium accumulation [8]: augmented glutamate-induced calcium accumulation
Increase of intracellular calcium [Ca2+]i [8]: increased
